Our source for the IC50 values is patent publication US4808572A, “α-Hydroxy thioethers” (Ciba-Geigy Corporation, priority 1985, dated 1989).

Assay [1] concerns the target phospholipase A2 from human leucocytes. Put plainly: In vitro inhibition of phospholipase A2 obtained from human leucocytes. As to conditions: enzyme from human neutrophilic polymorphonuclear leucocytes, 14C-oleic acid labelled E. coli phospholipids, 37°, 1 hour, pH 7. It counts as biochemical.
Procedure: Human neutrophilic polymorphonuclear leucocytes are isolated from "buffy coats" by multistage fractional sedimentation and are deep-frozen. Phospholipase A2 is extracted from the cell suspension by homogenisation with the addition of ice-cold 0.36N H2 SO4 in 2N NaCl, and the supernatant obtained after centrifugation at 10,000×g is dialysed against sodium acetate buffer pH 4.5.
In order to determine the enzyme activity, enzyme (10-30 μg protein) is incubated at 37° for 1 hour in 0.1M tris/HCl buffer pH 7 with the addition of 1 mM CaCl2 and substrate consisting of phospholipids (2 μM) of Escherichia coli that have been radioactively labelled with ^14 C-oleic acid by means of biosynthesis. The reaction is stopped by the addition of Dole reagent (isopropanol/heptane/1N H2 SO4 40:10:1, v/v) and the ^14 C-oleic acid selectively released by phospholipase A2 is extracted. Substrate also extracted at the same time is completely removed by filtering the extract through a column of silica gel. The ^14 C-oleic acid in the eluate is determined by radiometry.
In order to ascertain the inhibitory action of test substances on phospholipase A2, these substances are added in the form of solutions in water, dimethyl sulphoxide (final concentration in the mixture up to 5% v/v) or ethanol (final concentration in the mixture up to 2.5% v/v) to the incubation mixture. […]
In assay [2] the target is phospholipase C from human thrombocytes. Put plainly: In vitro inhibition of phospholipase C obtained from human thrombocytes. Format: biochemical. Conditions: enzyme from human thrombocytes, phosphatidyl-[14C]-inositol, 37°, 5 minutes, pH 6.
Procedure: Human thrombocytes are obtained from "buffy coats" by fractional centrifugation and then deep frozen.
To ascertain the enzyme activity, enzyme (20-100 μg protein) is incubated at 37° for 5 minutes in 0.025M tris/malate buffer pH 6 with the addition of 0.2 mM CaCl2 and 0.02 mM radioactively labelled substrate, phosphatidyl-[^14 C]-inositol. The reaction is stopped by extraction by shaking with CHCl3 /CH3 OH 2:1 (v/v). In the course of this operation unconsumed substrate is extracted into the organic phase, whilst the reaction product, ^14 C-inositol phosphate, remains in the aqueous phase and can be measured by radiometry of an aliquot.
In order to ascertain the inhibitory action of test substances on phospholipase C, these substances are added in the form of solutions in water, dimethyl sulphoxide (final concentration in the mixture up to 5%, v/v) or ethanol (final concentration in the mixture up to 2.5%, v/v) to the incubation mixture. The strength of action of the test substances is expressed by the IC50, that is to say the concentration that causes a 50% inhibition of the control activity. The IC50 is ascertained on a graph by plotting the percentage inhibition on the ordinate against the log of the concentration (μM) on the abscissa.

As usually defined, the IC50 is the concentration that gives 50% inhibition. As for `CCN(CC)CCCC(C)Nc1c2ccc(Cl)cc2nc2ccc(OC)cc12` (centres unmarked) [mepacrine], the IC50 in assay [1] stood at 1600 µM; in assay [2], 20 µM.
